Consider 7 molecules from US5198419A, “Formulated medicines for enhancing the efficacy of beta-lactam antibiotics in prophylaxis and treatment against infectious disease due to pathogenic bacteria” (Immuno Japan Inc., priority 1989, dated 1993).

The structures appear in SMILES notation.

In test [1] the test system is Staphylococcus aureus 209P. Nature of the test: Example 9: time-schedule of lactoferrin administration and efficacy of amoxicillin. It counts as in vivo, mice, ddY. The method, then: (§1) For ED50 values, a range of amounts of antibiotics is given in the examples (e.g., penicillin G: 0.4, 0.2, 0.1, 0.05 mg/mouse). To calculate the ED50, groups of mice in the monotherapy groups and groups of mice in the combined therapy groups received the indicated amount of antibiotic (e.g., one group received 0.4 mg/mouse of penicillin G, one group received 0.2 mg/mouse of penicillin G, one group received 0.1 mg/mouse of penicillin G, one group received 0.05 mg/mouse of penicillin G).
The effect of time-schedule of lactoferrin administration on the potentiation of antibiotic efficacy was examined using an experimental model similar to Example 1. Male ddY mice (n=10), five weeks old, weighing an average of 21.9 g, were used in this experiment. On day 0 all the mice were intraperitoneally injected with 1.2×10^5 CFU/mouse of Staphylococcus aureus 209P. Amoxicillin ([…], 0.625 mg/mouse) was orally given one hour after the injection.

A further test deals with Str. epidermids FT. Nature of the test: Example 10: experimental infection in mice, cefazolin with or without lactoferrin. It counts as in vivo. The settings on record: for ED50: 1000 MLD i.p. The method, then:
as §1
(§2) The potentiation of antibiotic efficacy by lactoferrin was examined using an infection model similar to Example 1. The antibiotics and lactoferrin were administered immediately after the injection (see Table 8). […] Lactoferrin (0.4 mg/mouse) potentiates the efficacies of the four beta-lactam antibiotics used: penicillin G against Streptococcus pyogenes infection was potentiated by 4.6 fold, cefazolin against S. epidermidis by 3.1 fold, methicillin against Diplococcus pneumoniae by 3.7 fold, and cloxacillin against Pseudomonas aeruginosa by 3.0 fold. Therefore, lactoferrin potentiates the efficacy of beta-lactam antibiotics against diseases caused by both gram-positive and gram-negative pathogenic bacteria.

Test [2] relates to Klebsiella pneumoniae strain 3K25. Nature of the test: Example 1: experimental infection in mice, cefpodoxime with or without native lactoferrin. It counts as in vivo, strain ICR. The method, then:
as §1
Sixty male mice, strain ICR, four weeks of age, body weight 19±1.0 g (mean±the standard deviation) were randomly divided into ten groups (n=6); the first group was assigned to the untreated control, the second group to the lactoferrin treated control group, the third through the sixth groups to the cephalosporin treated controls, and the seventh through the tenth groups to the combined treatment group of cephalosporin and lactoferrin. The mice were intraperitoneally injected with pneumobacillus, Klebsiella pneumoniae strain 3K25, 5×10^6 colony forming units (CFU) per mouse. The antibiotics used were orally active cephalosporin or cefpodoxime, and the bovine lactoferrin was the native one derived from cheese whey with 28.5% iron-saturation. One hour after the injection, the untreated control was orally given 0.2 ml of physiological saline, the second group orally given lactoferrin (0.4 mg/mouse), the third through the sixth groups were orally given cefpodoxime (10, 5, 2.5 and 1.25 mg/mouse) in 0.2 ml of physiological saline, the seventh through the tenth groups orally given the admixture of cefpodoxime (5, 2.5, 1.25, and 0.625 mg/mouse) together with lactoferrin (0.4 mg/mouse) in 0.2 ml of the saline. All the mice were housed in an animal room, allowed free access to commercial pellet diet and water, and observed for one week.

The test system is the same in test [3]. Description: Example 5: experimentally infected fed and fasted mice, cefpodoxime with or without native lactoferrin. It counts as in vivo, strain ICR. The method, then: as §1
Male mice, strain ICR, five weeks old, weighing an average of 21.6 g, were randomly allocated into sixteen groups (n =6). During the next 24 hours, eight groups were allowed free access to diet and water, while the other eight groups were fasted overnight. On the next day, all the mice were injected with 1.4×10^6 CFU/mouse of Klebsiella pneumoniae strain 3K25. The minimal lethal dose of this bacterium is […], and thus the injected dose was 1,000 times greater than the minimal lethal dose. Immediately after the injection, the fed groups were orally given cefpodoxime (10, 5, 2.5, and 1.25 mg/mouse) simultaneously with or without native lactoferrin (0.2 mg/mouse). The fasted groups also were orally given cefpodoxime (10, 5, 2.5, and 1.25 mg/mouse) simultaneously with or without native lactoferrin (0.2 mg/mouse).

For test [4] the test system is unchanged. Description: Example 2: experimental infection in mice, cefpodoxime with or without apolactoferrin. It counts as in vivo, strain ICR. Conditions: for ED50: p.o. 1 h after 5×10^5 CFU/mouse. The method, then: as §1
Sixty male mice, strain ICR, five weeks of age, weighing 19.3±1.1 g (mean body weight±the standard deviation) were randomly allocated into ten groups (n=6), and intraperitoneally injected with pneumobacilli, Klebsiella pneumoniae strain 3K25, 5×10^5 CFU/mouse. One hour after the injection, the first group was orally given 0.2 ml of physiological saline, the second group orally given iron free apolactoferrin (0.4 mg) in 0.2 ml of saline, the third through the sixth groups were orally given cefpodoxime (4, 2, 1, and 0.5 mg/mouse) in 0.2 ml saline, and the seventh through the tenth groups orally given the admixture of cefpodoxime (4, 2, 1, and 0.5 mg/mouse) and apolactoferrin (0.4 mg) in 0.2 ml of saline. Mice were fed ad libitum and observed for a week under the same conditions as described in Example 1.

For test [5] the test system is unchanged. Description: Example 8: dose-response relationship of potentiation of cefpodoxime efficacy by oral lactoferrin. It counts as in vivo, mice, ddY. The protocol:
as §1
The dose-response relationship of the potentiation of the antibiotic efficacy by lactoferrin was determined using the same experimental infection system as described in Example 1. Male ddY mice, five weeks of age, weighing approximate 20.3 g, were randomly allocated into groups (n=10); the first group was assigned to the cefpodoxime control (5 mg/mouse). The mice were intraperitoneally injected with pneumobacillus, Klebsiella pneumoniae strain 3K25, 3×10^5 per mouse. One hour after the injection, the antibiotic cefpodoxime (1, 0.5, 0.25 and 0.125 mg/mouse) was orally given in 0.2 ml of physiological saline.

A further test has as its system Escherichia coli #11. Description: Example 7: experimental infection in mice, cephalexin with or without native lactoferrin. It counts as in vivo, strain ddY. Conditions: po, 168 h, 1.7 × 10^6 CFU/mouse. The protocol:
as §1
Male mice, strain ddY, five weeks old, were randomly allocated into groups (n=10), and were intraperitoneally injected with Proteus mirabilis GN79 (1.3×10^6 CFU/mouse) or with Escherichia coli #11 (1.7×10^6 CFU/mouse) or with Klebsiella pneumoniae 3K25 (1.5×10^6 CFU/mouse). The doses are 1,000 times greater than the minimum lethal dose. Immediately after the injection, the first eight groups were orally given ampicillin, the second eight groups were orally given cephalexin, and the third eight groups were orally given cefaclor, respectively, each simultaneously with or without native lactoferrin (1 mg/mouse) in 0.2 ml of distilled water (see Table 7). All the mice were fed ad libitum and observed for one week under the same conditions as described in Example 1.

The test system of test [6] is Pseudomonas aeruginosa E8. Description: Example 10: experimental infection in mice, cloxacillin with or without lactoferrin. It counts as in vivo. Conditions: for ED50: 10 MLD i.p. The protocol: as §1, §2
Test [7] concerns Diplococcus pneumoniae Ch. Description: Example 10: experimental infection in mice, methicillin with or without lactoferrin. It counts as in vivo. The settings on record: for ED50: 100 MLD i.p. The protocol: as §1, §2
Test [8] relates to Streptococcus pyogenes #59. Description: Example 10: experimental infection in mice, penicillin G with or without lactoferrin. It counts as in vivo. The settings on record: for ED50: 1000 MLD i.p. The protocol:
as §1, §2

Setting [9] is: cefazolin with lactoferrin (0.4 mg/mouse).
The mark [10] stands for this setting: cloxacillin with lactoferrin (0.4 mg/mouse).
Where [11] appears, read: methicillin with lactoferrin (0.4 mg/mouse).
Setting [12] is: penicillin G with lactoferrin (0.4 mg/mouse).

In the case of `CC1(C)S[C@@H]2[C@H](NC(=O)[C@H](N)c3ccc(O)cc3)C(=O)N2[C@H]1C(=O)O` [amoxicillin], the ED50 is recorded as 2.46 mg/mouse in test [1] (amoxicillin control, no lactoferrin); 0.78 mg/mouse in test [1] (amoxicillin, lactoferrin (0.5 mg/mouse) dosed +3 (hr)); 2.48 mg/mouse in test [1] (amoxicillin, lactoferrin (0.5 mg/mouse) dosed +12 (hr)); 1.39 mg/mouse in test [1] (amoxicillin, lactoferrin (0.5 mg/mouse) dosed -1 (day)); 2.46 mg/mouse in [1] (amoxicillin, lactoferrin (0.5 mg/mouse) dosed -2 (day)); 2.46 mg/mouse in [1] (amoxicillin, lactoferrin (0.5 mg/mouse) dosed -3 (day)). Moreover, the ED50 in test [1] (amoxicillin, lactoferrin (0.5 mg/mouse) dosed -5 (day)) is on record as 2.14 mg/mouse; in test [1] (amoxicillin, lactoferrin (0.5 mg/mouse) dosed -6 (hr)) it was 0.40 mg/mouse; in test [1] (amoxicillin, lactoferrin (0.5 mg/mouse) dosed -12 (hr)), 0.55 mg/mouse; in test [1] (amoxicillin, lactoferrin (0.5 mg/mouse) dosed at 0) it was 0.40 mg/mouse.

With `Cc1nnc(SCC2=C(C(=O)O)N3C(=O)[C@@H](NC(=O)Cn4cnnn4)[C@H]3SC2)s1` [cefazolin], the ED50 in the test with Str. epidermids FT (cefazolin control) was determined as 0.152 mg/mouse. Also, in the test on Str. epidermids FT (setting [9]), the “potentiation of efficacy by lactoferrin” value is recorded as 3.1 fold and the ED50 is recorded as 0.048 mg/mouse.

With `COCC1=C(C(=O)O)N2C(=O)[C@@H](NC(=O)/C(=N\OC)c3csc(N)n3)[C@H]2SC1` [cefpodoxime], the ED50 in [2] (cefpodoxime alone, p.o. 1 h after i.p. injection of 5×10^6 CFU/mouse, 95% range not named (6.3-10.0 mg/mouse printed)) is 7.93 mg/mouse; in [2] (cefpodoxime with native lactoferrin (0.4 mg/mouse), p.o. 1 h after injection of 5×10^6 CFU/mouse, range 0.92-1.70 mg/mouse printed), 1.25 mg/mouse; in test [3] (fasted, cefpodoxime (antibiotic) alone), 39.40 (27.15-56.15) mg/mouse; in [3] (fasted, cefpodoxime admixture with lactoferrin (0.2 mg/mouse)), 7.80 (5.65-10.83) mg/mouse; in [3] (fed, cefpodoxime (antibiotic) alone) it was 15.65 (11.45-21.30) mg/mouse; in [3] (fed, cefpodoxime admixture with lactoferrin (0.2 mg/mouse)) it was 4.90 (3.65-6.60) mg/mouse. Also, the ED50 in test [4] (cefpodoxime combined therapy with apolactoferrin (0.4 mg), range 0.19-0.33 mg printed) was 0.25 mg/mouse; in [4] (cefpodoxime monotherapy, range 0.74-1.32 mg/mouse printed) it was 0.99 mg/mouse; in test [5] (cefpodoxime with lactoferrin 0.00 mg/mouse), 0.473 mg/mouse; in test [5] (cefpodoxime with lactoferrin 0.005 mg/mouse), 0.382 mg/mouse; in [5] (cefpodoxime with lactoferrin 0.05 mg/mouse), 0.104 mg/mouse; in [5] (cefpodoxime with lactoferrin 0.5 mg/mouse), 0.104 mg/mouse. The ED50 in test [5] (cefpodoxime with lactoferrin 5.0 mg/mouse) and in test [5] (cefpodoxime with lactoferrin 50.0 mg/mouse) was 0.104 mg/mouse each time. Moreover, the “life span versus untreated and lactoferrin controls” value in test [2] (cefpodoxime treated group) is “significantly prolonged”; in [2] (combined treatment groups of cefpodoxime and lactoferrin), “significantly prolonged”. In addition, in test [4] (cefpodoxime with apolactoferrin, combined therapy group), the recovery of mice result is on record as “all the mice recovered”.

Take `CC1=C(C(=O)O)N2C(=O)[C@@H](NC(=O)[C@H](N)c3ccccc3)[C@H]2SC1` [cephalexin]: the ED50 came out at 216 mg/kg in the test with Escherichia coli #11 (cephalexin alone) and 34.8 mg/kg in the test with Escherichia coli #11 (cephalexin with lactoferrin (1 mg/mouse)).

Consider `Cc1onc(-c2ccccc2Cl)c1C(=O)N[C@@H]1C(=O)N2[C@@H]1SC(C)(C)[C@@H]2C(=O)O` [cloxacillin], for which the ED50 in [6] (cloxacillin control) is 3.16 mg/mouse. In test [6] (setting [10]), the “potentiation of efficacy by lactoferrin” value worked out at 3.0 fold and the ED50 is 1.06 mg/mouse.

As to `COc1cccc(OC)c1C(=O)N[C@@H]1C(=O)N2[C@@H]1SC(C)(C)[C@@H]2C(=O)O` [methicillin], the values for the ED50 in test [7] (methicillin control) and in test [7] (setting [11]) were 0.227 mg/mouse and 0.061 mg/mouse, respectively. In addition, in test [7] (setting [11]), the “potentiation of efficacy by lactoferrin” value stood at 3.7 fold.

As for `CC1(C)S[C@@H]2[C@H](NC(=O)Cc3ccccc3)C(=O)N2[C@H]1C(=O)O` [penicillin G], in test [8] (penicillin G control), the ED50 is given as 0.106 mg/mouse. For the same molecule, in test [8] (setting [12]), the “potentiation of efficacy by lactoferrin” value turned out to be 4.6 fold and the ED50 turned out to be 0.023 mg/mouse.
